Source: patent publication US6313111A, “Substituted 6H-1,3,4-thiadiazine-2-amines, the use thereof as anaesthetising, cardiovascular and hypometabolic agents, and pharmaceutical composition containing them” (priority 1998, dated 2001)
Counter-ions that a name gives are not always drawn.

Experiment: rectal (body) temperature of mice measured with medicinal electrothermometer TREM-1
Type: in vivo, mice of the BALB line
Procedure: In all cases tests were carried out on mice of the BALB line of 3-4 month age. […] In the case of water-soluble compounds, aqueous solutions of the test compounds were injected intraperitoneally (i.p.), while water-insoluble compounds were introduced orally (p.o.).
Rectal temperature changes (absolute magnitues in ° C.) were measured using a medicinal electrothermometer TREM-1 (Table 1). The rate of oxygen consumption was monitored by measuring concentration of oxygen in a closed testing unit with optic-acoustic gas analyser MN 5130. The data on oxygen consumption are given in percents relative to the starting content of oxygen taken as 100%. (Table 2).
Rectal temperature of mice was followed in dynamics after 5, 15, 30, 60, 120, 180, 240, 300, and 360 minutes (Table 3). […] The same decrease in temperature at 190 mg/kg dosage was reached after 15 minutes; in 1.5 hours it reached 22-25° C. and maintained this level over the next 5 hours, that is 13-17° C. below the initial value. After one day, body temperature was restored to the value of 94-96% of initial.

For c1ccc(C2=NN=C(N3CCOCC3)SC2)cc1 [Compound 1, 2-Morpholino-5-phenyl-6H-1,3,4-thiadiazine, hydrobromide], the “body temperature (T)” value (10.0 mg/kg i.p., 0 min) was 37.5 ± 0.2 °C, the “body temperature (T)” value (10.0 mg/kg i.p., 10 min) was 37.8 ± 0.1 °C and the “body temperature (T)” value (10.0 mg/kg i.p., 20 min) was 37.4 ± 0.2 °C. The “body temperature (T)” value (10.0 mg/kg i.p., 30 min) was 37.3 °C, the “body temperature (T)” value (10.0 mg/kg i.p., 40 min) was 37.5 ± 0.1 °C and the “body temperature (T)” value (10.0 mg/kg i.p., 60 min) was 37.5 ± 0.1 °C. The “body temperature (T)” value (10.0 mg/kg i.p., 90 min) was 37.4 ± 0.2 °C, the “body temperature (T)” value (10.0 mg/kg i.p., 120 min) was 36.9 ± 0.1 °C and the “body temperature (T)” value (10.0 mg/kg i.p., 180 min) was 36.9 ± 0.2 °C. The “body temperature (T)” value (10.0 mg/kg i.p., 210 min) was 36.4 °C, the “body temperature (T)” value (10.0 mg/kg i.p., 240 min) was 36.7 ± 0.2 °C and the “body temperature (T)” value (10.0 mg/kg i.p., 270 min) was 36.7 ± 0.2 °C. The “body temperature (T)” value (10.0 mg/kg i.p., 300 min) was 36.9 ± 0.1 °C, the “body temperature (T)” value (10.0 mg/kg i.p., 330 min) was 36.8 ± 0.2 °C and the “body temperature (T)” value (10.0 mg/kg i.p., 390 min) was 36.7 ± 0.2 °C. The “body temperature (T)” value (35.0 mg/kg i.p., 0 min) was 37.7 ± 0.2 °C, the “body temperature (T)” value (35.0 mg/kg i.p., 10 min) was 37.2 ± 0.2 °C and the “body temperature (T)” value (35.0 mg/kg i.p., 20 min) was 36.6 ± 0.4 °C. The “body temperature (T)” value (35.0 mg/kg i.p., 30 min) was 35.9 °C, the “body temperature (T)” value (35.0 mg/kg i.p., 40 min) was 36.6 ± 0.1 °C and the “body temperature (T)” value (35.0 mg/kg i.p., 60 min) was 37.0 ± 0.3 °C. The “body temperature (T)” value (35.0 mg/kg i.p., 90 min) was 37.3 ± 0.1 °C, the “body temperature (T)” value (35.0 mg/kg i.p., 120 min) was 37.1 ± 0.3 °C and the “body temperature (T)” value (35.0 mg/kg i.p., 180 min) was 36.9 ± 0.2 °C. The “body temperature (T)” value (35.0 mg/kg i.p., 210 min) was 36.6 ± 0.1 °C, the “body temperature (T)” value (35.0 mg/kg i.p., 240 min) was 36.9 ± 0.4 °C and the “body temperature (T)” value (35.0 mg/kg i.p., 270 min) was 36.8 ± 0.1 °C. The “body temperature (T)” value (35.0 mg/kg i.p., 300 min) was 36.9 ± 0.1 °C, the “body temperature (T)” value (35.0 mg/kg i.p., 330 min) was 37.2 ± 0.2 °C and the “body temperature (T)” value (35.0 mg/kg i.p., 390 min) was 37.1 ± 0.1 °C. The “body temperature (T)” value (70.0 mg/kg i.p., 0 min) was 37.5 ± 0.2 °C, the “body temperature (T)” value (70.0 mg/kg i.p., 10 min) was 36.2 ± 0.3 °C and the “body temperature (T)” value (70.0 mg/kg i.p., 20 min) was 35.4 ± 0.5 °C. The “body temperature (T)” value (70.0 mg/kg i.p., 30 min) was 34.5 °C, the “body temperature (T)” value (70.0 mg/kg i.p., 40 min) was 35.0 ± 0.9 °C and the “body temperature (T)” value (70.0 mg/kg i.p., 60 min) was 35.6 ± 0.6 °C. The “body temperature (T)” value (70.0 mg/kg i.p., 90 min) was 36.1 ± 0.2 °C, the “body temperature (T)” value (70.0 mg/kg i.p., 120 min) was 37.0 ± 0.2 °C and the “body temperature (T)” value (70.0 mg/kg i.p., 180 min) was 36.7 ± 0.6 °C. For the same compound, the “body temperature (T)” value (70.0 mg/kg i.p., 210 min) was 36.9 °C, the “body temperature (T)” value (70.0 mg/kg i.p., 240 min) was 37.0 ± 0.1 °C and the “body temperature (T)” value (70.0 mg/kg i.p., 270 min) was 36.6 ± 0.2 °C. The “body temperature (T)” value (70.0 mg/kg i.p., 300 min) was 37.0 ± 0.1 °C, the “body temperature (T)” value (70.0 mg/kg i.p., 330 min) was 37.2 ± 0.1 °C and the “body temperature (T)” value (70.0 mg/kg i.p., 390 min) was 37.1 ± 0.1 °C. The “time of maximum drop of body temperature” value (140 mg/kg i.p.) was 40 to 60 min, the “body temperature (T)” value (140.0 mg/kg i.p., 0 min) was 37.9 ± 0.1 °C and the “body temperature (T)” value (140.0 mg/kg i.p., 10 min) was 34.5 ± 0.2 °C. The “body temperature (T)” value (140.0 mg/kg i.p., 20 min) was 32.6 ± 0.4 °C, the “body temperature (T)” value (140.0 mg/kg i.p., 30 min) was 30.8 °C and the “body temperature (T)” value (140.0 mg/kg i.p., 40 min) was 30.2 ± 0.1 °C. For the same compound, the “body temperature (T)” value (140.0 mg/kg i.p., 60 min) was 30.0 ± 0.1 °C, the “body temperature (T)” value (140.0 mg/kg i.p., 90 min) was 31.5 ± 0.9 °C and the “body temperature (T)” value (140.0 mg/kg i.p., 120 min) was 33.6 ± 0.7 °C. For the same compound, the “body temperature (T)” value (140.0 mg/kg i.p., 180 min) was 35.2 ± 0.5 °C, the “body temperature (T)” value (140.0 mg/kg i.p., 210 min) was 36.1 °C and the “body temperature (T)” value (140.0 mg/kg i.p., 240 min) was 36.5 ± 0.2 °C. The “body temperature (T)” value (140.0 mg/kg i.p., 270 min) was 36.6 ± 0.2 °C, the “body temperature (T)” value (140.0 mg/kg i.p., 300 min) was 36.9 ± 0.1 °C and the “body temperature (T)” value (140.0 mg/kg i.p., 330 min) was 37.6 ± 0.2 °C. For the same compound, the “body temperature (T)” value (140.0 mg/kg i.p., 390 min) was 37.2 ± 0.2 °C, the “maximum drop of body temperature” value (140 mg/kg i.p., after 40-60 minutes) was 7-8 °C and the “body temperature (T)” value (190 mg/kg (1/2 LD16) i.p., 5 min) was 34.9 ± 0.0 °C. For the same compound, the “body temperature (T)” value (190 mg/kg (1/2 LD16) i.p., 15 min) was 30.8 ± 0.2 °C, the “time to reach the same decrease in temperature (7-8° C.)” value (190 mg/kg i.p.) was 15 min and the “body temperature (T)” value (190.0 mg/kg i.p., 0 min) was 39.2 ± 0.1 °C. The “body temperature (T)” value (190.0 mg/kg i.p., 10 min) was 34.9 ± 0.0 °C.
